In patent publication US20130237485A1, “Methods and Agents for Enhancing Wound Healing” (UNIVERSITY OF SOUTHERN CALIFORNIA, priority 2010, published 2013):

Key:
[1] = tested on: RDEB keratinocytes; test: Immunoblot (anti-NC1 antibody) for full-length C7 in RDEB keratinocytes treated with aminoglycosides; assay type: cell-based, human; conditions: for read-through / full-length C7 production: 48 h, G418 8 μg/mL, gentamicin 200 μg/mL, paromomycin 200 μg/mL, amikacin 1 mg/mL, PTC 124 20 μg/mL, EB5K and DG16 keratinocytes, FIG. 1; for sustained C7 production: G418 8 μg/mL or gentamicin 200 μg/mL, lysed at 3, 5, or 8 days following treatment, FIG. 3; for dose dependence of full-length C7 production: varying concentrations, EB5K and DG16 lines, FIG. 2
Description: RDEB keratinocytes were treated for 48 h with either G418 (8 μg/mL), gentamicin (200 μg/mL), paromomcyin (200 μg/mL), amikacin (1 mg/mL), or PTC 124 (20 μg/mL). Cells were subsequently lysed and subjected to immunoblot analysis with anti-NC1 antibody or anti-β-tubulin antibody (loading control).
RDEB keratinocytes were treated with varying concentrations of G418 and Gentamicin. Cells were lysed and subjected to immunoblot analysis with an anti-NC1 or anti-β-tubulin antibody (loading control).
EB5K and D016 keratinocytes were treated with G418 (8 μg/mL) or gentamicin (200 μg/mL). Cells were lysed at 3, 5, or 8 days following treatment and subjected to immunoblot analysis with an anti-NC1 or anti-β-tubulin antibody.

[2] = tested on: EB5K and DG16 keratinocytes; test: Colloidal gold salt migration assay using collagen I as a matrix; assay type: cell-based; conditions: G418 8 μg/mL or gentamicin 200 μg/mL for 48 h; compared with normal human keratinocytes (IKC); FIG. 5
Description: In FIG. 5A, keratinocytes were either untreated or treated with G418 (8 μg/mL) or gentamicin (200 μg/mL) for 48 h and then subjected to colloidal gold salt migration assay using collagen I as a matrix. Representative fields were photographed at 40× under dark field optics. In FIG. 5B, migration index expresses the percentage of the total field area consumed by the migration tracks. Error bars, SD of three different experiments.

[3] = tested on: DG16 and EB5K keratinocytes; test: Immunofluorescence staining for C7 with polyclonal anti-NC1 antibody; assay type: cell-based, human; conditions: G418 8 μg/mL or gentamicin 200 μg/mL, FIG. 4
Description: Normal human keratinocytes (IKC) were stained in parallel. […] In contrast, untreated parent keratinocytes entirely lacked C7expression.

[4] = tested on: Human epithelial (293 cells) transfected with nonsense mutation constructs; test: Immunoblot (anti-NC1 antibody) of 293 cells transfected with COL7A1 nonsense mutation constructs; assay type: cell-based; conditions: 293 cells with mutant constructs; for PTC read-through and full-length C7 production: G418 8 μg/mL or gentamicin 200 μg/mL for 48 h, FIG. 7
Description: For experimentation with cells containing different nonsense mutation in the COL7A1 gene, we used a C7 expression vector to introduce 30 nonsense mutations associated with RDEB via site-directed mutagenesis.
Human epithelial (293 cells) transfected with nonsense mutation constructs were treated with (FIG. 7A) G418 (8 μg/mL) and (FIG. 7B) gentamicin (200 μg/mL) for 48 h, lysed, and subjected to immunoblot analysis with an anti-NC1 antibody or anti-β-tubulin antibody (loading control).
In FIG. 8B, 293 cells transfected with the indicated mutant constructs were either untreated or treated with G418 (8 μg/mL) for 48 h, lysed and subjected to immunoblot analysis using an anti-NC1 antibody or anti-β-tubulin antibody (loading control).

Compound | read-through / full-length C7 production [1] | keratinocyte hypermotility (migration index) [2] | C7 staining (immunofluorescence) [3] | sustained C7 production [1] | dose dependence of full-length C7 production [1] | levels of truncated and full-length C7 production compared to untreated cells ([4]; G418 8 μg/mL for 48 h, FIG. 8B) | PTC read-through and full-length C7 production [4]
NCC[C@H](O)C(=O)N[C@@H]1C[C@H](N)[C@@H](O[C@H]2O[C@H](CN)[C@@H](O)[C@H](O)[C@H]2O)[C@H](O)[C@H]1O[C@H]1O[C@H](CO)[C@@H](O)[C@H](N)[C@H]1O [Amikacin, amikacin] | did not cause read-through in either keratinocyte line | – | – | – | – | – | –
CN[C@@H]1[C@@H](O)[C@@H](O[C@@H]2[C@@H](O)[C@H](O[C@H]3O[C@H]([C@@H](C)O)[C@@H](O)[C@H](O)[C@H]3N)[C@@H](N)C[C@H]2N)OC[C@]1(C)O [G418] | induced full-length C7 production in both EB5K and DG16 keratinocytes | reversed their hypermotility phenotype to normal | demonstrated C7 staining | induced sustained C7 production | induced full-length C7 production in a dose-dependent manner in both EB5K and DG16 lines | significantly higher levels of truncated and full-length C7 production | induced PTC read-through and full-length C7 production
O=C(O)c1cccc(-c2noc(-c3ccccc3F)n2)c1 [PTC124, PTC 124] | did not cause read-through in either keratinocyte line | – | – | – | – | – | –
NC[C@@H]1O[C@H](O[C@H]2[C@@H](O)[C@H](O[C@@H]3[C@@H](O)[C@H](N)C[C@H](N)[C@H]3O[C@H]3O[C@H](CO)[C@@H](O)[C@H](O)[C@H]3N)O[C@@H]2CO)[C@H](N)[C@@H](O)[C@@H]1O [Paromomycin, paromomycin] | induced read-through in DG16 cells only | – | – | – | – | – | –
gentamicin | induced full-length C7 production in both EB5K and DG16 keratinocytes | reversed their hypermotility phenotype to normal | demonstrated C7 staining | induced sustained C7 production | induced full-length C7 production in a dose-dependent manner in both EB5K and DG16 lines | – | induced PTC read-through and full-length C7 production
